Measured values published in ChEMBL document CHEMBL4680281, “Recent Advances on Nitrones Design for Stroke Treatment” (J Med Chem, 2020).

Experiments:
[1] = Antioxidant activity assessed as SIN1-induced ONOO scavenging activity at 1 uM incubated for 1250 secs by chemiluminescence method relative to control; type: functional; conditions: time 1250.0 sec
[2] = Antioxidant activity assessed as SIN1-induced ONOO scavenging activity at 1 mM incubated for 1250 secs by chemiluminescence method relative to control; type: functional; conditions: time 1250.0 sec
Rattus norvegicus = assay: Neuroprotective activity in Sprague-Dawley rat model of permanent middle cerebral artery occlusion assessed as infarction volume at 80 mg/kg, ip administered 2 hr post MCAO induction and measured 14 hrs post MCAO challenge by TTC staining based assay (reference value: 27.5%); type: functional; conditions: time 12 hrs
[3] = Drug concentration in Sprague-Dawley rat brain at 80 mg/kg, iv measured after 5 mins by reverse-phase HPLC method; type: ADME, organism-based; conditions: read-out: Ct

Work on Cc1nc(C)c(/C=[N+](\[O-])C(C)(C)C)nc1C yielded an Activity [1] of 35.3%, an Activity [2] of 94.7% and an Activity (Rattus norvegicus) of 20.3%. It also gave a concentration at 5 min [3] of 650 µM.
